The text below walks through data of patent US6458764B1, “GRF analogs with increased biological potency” (Theratechnologies Inc., priority 1995, dated 2002).

What all share (type): in vivo, pigs (Landrace x Yorkshire)
In experiment [1] the test system is serum IGF-I. Kind of experiment: Repeated S.C. administrations of GRF analogs, serum IGF-I levels in pigs (Example I, Experiments 1-3; radioimmunoassay). As to conditions: for serum IGF-I, Day 1 (pretreatment): pretreatment baseline; for increase in IGF-I levels: 20 μg/kg BID SC, P<0.05. As to the method: The objective of these experiments was to assess the potential of the GRF analogs as anabolic agents.
Therefore, in order to investigate the anabolic potency of the fatty acid-GRF analogs, their ability to increase IGF-I levels following repeated S.C. administrations in pig was evaluated.
26 Landrace x Yorkshire castrated male pigs (40-45 kg BW) were randomly distributed into 4 experimental groups:
Each animal was injected BID (twice a day) subcutaneously for 4 consecutive days. One blood sample was collected each morning prior to the first injection of the day, and the day after the last injection, for IGF-I measurement.
40 Landrace x Yorkshire castrated male pigs (40-45 kg BW) were randomly distributed into 5 experimental groups:
Each animal was injected BID (twice a day) subcutaneously for 5 consecutive days. One blood sample was collected each morning prior to the first injection of the day, and the day after the last injection, for IGF-I measurement.
48 Landrace x Yorkshire castrated male pigs (40-45 kg BW) were randomly distributed into 6 experimental groups:
The selected doses were 30 μg/kg for hGRF(1-44)NH2 analogs and 20 μg/kg for hGRF(1-29)NH2 analogs, which give identical doses on a molar basis. Each animal was injected BID (twice a day) subcutaneously for 5 consecutive days. One blood sample was collected each morning prior to the first injection of the day, and the day after the last injection, for IGF-I measurements.
IGF-I levels were measured in pig serum by double antibody radioimmunoassay after formic acid-acetone extraction, as previously described (Abribat T. et al., 1993, J. Endocrinol., 39:583-589). The extraction prior to radioimmunoassay is a necessary step to remove endogenous IGF-binding proteins.
In both experiments, the IGF-I data were analyzed by a two way repeated measure analysis of variance, with day and treatment (GRF analog) as sources of variation. Multiple comparison procedures were there run (Student-Newman Keuls method). A P<0.05 was considered as statistically significant.

In experiment [2] the test system is serum IGF-I. The experiment in a line: Comparative effects of GRF analogs on IGF-I levels in pigs (Example II, D-IGF-I, FIG. 1). The following applies: 20 μg/kg 2×/day S.C., days 1 to 5, n=8 pigs per group. The procedure:
This was a 5-day treatment, twice a day S.C. administration of one single dose of each test article vs saline. This experiment was conducted to compare the efficacy of (Aminohexanoyl)0 hGRF (1-29) NH2, (Hexylformiate)0 hGRF (1-29) NH2, (Hexenoyl trans-2)0 hGRF (1-29) NH2, (Hexenoyl trans-3)0 hGRF (1-29) NH2 and (Muconoyl)0 hGRF (1-29) NH2 to that of(Hexanoyl)0 hGRF (1-29) NH2.
ADMINISTRATION: Two daily subcutaneous injections.
(§1) TEST SYSTEM: Landrace x Yorkshire pigs.
ANIMAL DESCRIPTION: Fifty six (56) growing barrows pigs weighing 35 kg at the time of purchase.
DESIGN: Fifty six (56) pigs were randomly distributed into 7 experimental groups (n=8 pigs per group). Each group received two daily S.C. administration of the following treatments (volume: 3 ml, S.C. injection).
Treatments were administered from day 1 to 5. Immediately before the injections, one blood sample were collected from each animal, and additional blood samples were collected on day 6.
Blood samples were allowed to clot, serum was harvested by centrifugation and submitted to IGF-I assays.
Results are shown in FIG. 1 as D-IGF-I, which is defined as the increase in IGF-I levels from day 1 (pretreatment levels) to day 6 (after 5 days of GRFs administrations).

Experiment [3] relates to pig serum GH. The experiment in a line: Subcutaneous GH-releasing potency in pigs (Example IV). The following applies: for effect on GH area under the curve, 0 to 420 minutes following injection: S.C., FIG. 5. As to the method: This experiment was conducted to test the S.C. acute GH-releasing potency of (Hexenoyl trans-3)0 hGRF (1-29) NH2, a GRF analog, in a model physiologically close to human and to compare it to that of hGRF(1-29)NH2.
ADMINISTRATION: Subcutaneous acute injection.
as §1
DESIGN: Thirty six (36) pigs (4 spare animals) were cannulated (a catheter surgically implanted in one jugular vein) within one week, before the study. On days 1 and 7, cannulated animals were randomly distributed into 8 groups (n=4 pigs per group).
Blood samples for pGH assay were collected every 20 min from 1 hour before to 7 hours after GRF injections, (n=25 samples). Blood samples were allowed to clot at +4CC. Serum is harvested by centrifugation, stored at −20° C. and submitted to pGH assays.

The subject of experiment [4] is pig serum GH. Kind of experiment: Intravenous GH-releasing potency in pigs (Example III). As to conditions: for effect on GH area under the curve (0 to 300 minutes following injection): I.V., FIG. 3. The procedure:
This experiment was conducted to test the I.V. acute GH-releasing potency of (Hexenoyl trans-3)0 hGRF (1-29) NH2, a GRF analog, in a model physiologically close to human and to compare it to that of hGRF(1-29)NH2.
(Hexenoyl trans-3)0 hGRF (1-29) NH2 is a combination of the natural hGRF(1-29)NH2 and natural fatty acids. This study was a multidose, single I.V. injection study.
ADMINISTRATION: intravenous acute injection.
as §1
DESIGN: […] pigs (4 spare animals) were cannulated (a catheter surgically implanted in one jugular vein) within on week, before the study. On days 1 and 7, cannulated animals were randomly distributed into 7 groups (n=4 pigs per group).
Blood samples for pGH assay were collected every 20 min from 1 hour before to 5 hours after GRF injections, with additional samplings 10 and 30 min after injection (n=21 samples). Blood samples are allowed to clot at +4° C. Serum will be harvested by centrifugation, stored at −20° C. and submitted to pGH assays.

[5] abbreviates: Experiment 1, 20 μg/kg BID SC × 4 days, mean of 6 to 7.
Setting [6] is: Experiment 2, 10 μg/kg BID SC × 5 days, mean of 8.
Setting [7] is: Experiment 2, 20 μg/kg BID SC × 5 days, mean of 8.
[8] abbreviates: Experiment 2, 40 μg/kg BID SC × 5 days, mean of 8.
Setting [9] is: Experiment 3, 20 μg/kg BID SC × 5 days, mean of 8.
Setting [10] is: one intravenous injection, 4 μg/kg, FIG. 2.

Take “(Hexanoyl)0 hGRF (1-29) NH2 (YADAIFTNSYRKVLGQLSARKLLQDIMSR; HELM PEPTIDE1{[CCCCCC(=O)[*:2]].Y.A.D.A.I.F.T.N.S.Y.R.K.V.L.G.Q.L.S.A.R.K.L.L.Q.D.I.M.S.R.[am]}$$$$V2.0; SMILES CCCCCC(=O)N[C@@H](Cc1ccc(O)cc1)C(=O)N[C@@H](C)C(=O)N[C@@H](CC(=O)O)C(=O)N[C@@H](C)C(=O)N[C@H](C(=O)N[C@@H](Cc1ccccc1)C(=O)N[C@H](C(=O)N[C@@H](CC(N)=O)C(=O)N[C@@H](CO)C(=O)N[C@@H](Cc1ccc(O)cc1)C(=O)N[C@@H](CCCNC(=N)N)C(=O)N[C@@H](CCCCN)C(=O)N[C@H](C(=O)N[C@@H](CC(C)C)C(=O)NCC(=O)N[C@@H](CCC(N)=O)C(=O)N[C@@H](CC(C)C)C(=O)N[C@@H](CO)C(=O)N[C@@H](C)C(=O)N[C@@H](CCCNC(=N)N)C(=O)N[C@@H](CCCCN)C(=O)N[C@@H](CC(C)C)C(=O)N[C@@H](CC(C)C)C(=O)N[C@@H](CCC(N)=O)C(=O)N[C@@H](CC(=O)O)C(=O)N[C@H](C(=O)N[C@@H](CCSC)C(=O)N[C@@H](CO)C(=O)N[C@@H](CCCNC(=N)N)C(N)=O)[C@@H](C)CC)C(C)C)[C@@H](C)O)[C@@H](C)CC; UniProt P01286 32-60, looked up, fragment) [[hexanoyl^0] hGRF(1-29)NH2]”: the “serum IGF-I, Day 2” value in the experiment with serum IGF-I [1] (setting [5]) turned out to be 281 ng/mL; with serum IGF-I [1] (setting [6]), 327 ng/mL; in the experiment with serum IGF-I [1] (setting [7]) it was 341 ng/mL; with serum IGF-I [1] (setting [8]) it was 275 ng/mL; in the experiment on serum IGF-I [1] (setting [9]) it was 292 ng/mL. Moreover, the “serum IGF-I, Day 3” value in the experiment on serum IGF-I [1] (setting [5]) turned out to be 299 ng/mL; with serum IGF-I [1] (setting [6]) it was 337 ng/mL; in the experiment on serum IGF-I [1] (setting [7]), 368 ng/mL; with serum IGF-I [1] (setting [8]), 319 ng/mL; in the experiment with serum IGF-I [1] (setting [9]), 292 ng/mL. The “serum IGF-I, Day 4” value turned out to be 319 ng/mL in the experiment with serum IGF-I [1] (setting [5]); 338 ng/mL in the experiment with serum IGF-I [1] (setting [6]); 362 ng/mL in the experiment with serum IGF-I [1] (setting [7]); 354 ng/mL with serum IGF-I [1] (setting [8]); 315 ng/mL in the experiment on serum IGF-I [1] (setting [9]). In addition, the “serum IGF-I, Day 5” value in the experiment on serum IGF-I [1] (setting [5]) was 342 ng/mL; in the experiment with serum IGF-I [1] (setting [6]), 366 ng/mL; in the experiment with serum IGF-I [1] (setting [7]) it was 362 ng/mL; in the experiment on serum IGF-I [1] (setting [8]) it was 350 ng/mL; in the experiment with serum IGF-I [1] (setting [9]), 347 ng/mL. Also, the “serum IGF-I, Day 1 (pretreatment)” value in the experiment on serum IGF-I [1] (setting [5]) came to 248 ng/mL; in the experiment with serum IGF-I [1] (setting [6]), 303 ng/mL; in the experiment on serum IGF-I [1] (setting [7]) it was 302 ng/mL; in the experiment with serum IGF-I [1] (setting [8]) it was 252 ng/mL; with serum IGF-I [1] (setting [9]), 272 ng/mL. The “increase in IGF-I levels” value was 29% with serum IGF-I [1] (Experiment 1, day 4); 38% in the experiment on serum IGF-I [1] (Experiment 1, day 5); 28% in the experiment with serum IGF-I [1] (Experiment 3, day 5); 31% with serum IGF-I [1] (Experiment 3, day 6). The “serum IGF-I, Day 6” value is 350 ng/mL in the experiment with serum IGF-I [1] (setting [6]), 368 ng/mL in the experiment on serum IGF-I [1] (setting [7]), 374 ng/mL with serum IGF-I [1] (setting [8]) and 356 ng/mL in the experiment with serum IGF-I [1] (setting [9]). In addition, the “D-IGF-I: increase in IGF-I levels from day 1 (pretreatment) to day 6” value in the experiment with serum IGF-I [2] was “significantly increased IGF-I levels”.
With “(Hexenoyl trans-3)0 hGRF (1-29) NH2 (YADAIFTNSYRKVLGQLSARKLLQDIMSR; HELM PEPTIDE1{[CC/C=C/CC(=O)[*:2]].Y.A.D.A.I.F.T.N.S.Y.R.K.V.L.G.Q.L.S.A.R.K.L.L.Q.D.I.M.S.R.[am]}$$$$V2.0; SMILES CC/C=C/CC(=O)N[C@@H](Cc1ccc(O)cc1)C(=O)N[C@@H](C)C(=O)N[C@@H](CC(=O)O)C(=O)N[C@@H](C)C(=O)N[C@H](C(=O)N[C@@H](Cc1ccccc1)C(=O)N[C@H](C(=O)N[C@@H](CC(N)=O)C(=O)N[C@@H](CO)C(=O)N[C@@H](Cc1ccc(O)cc1)C(=O)N[C@@H](CCCNC(=N)N)C(=O)N[C@@H](CCCCN)C(=O)N[C@H](C(=O)N[C@@H](CC(C)C)C(=O)NCC(=O)N[C@@H](CCC(N)=O)C(=O)N[C@@H](CC(C)C)C(=O)N[C@@H](CO)C(=O)N[C@@H](C)C(=O)N[C@@H](CCCNC(=N)N)C(=O)N[C@@H](CCCCN)C(=O)N[C@@H](CC(C)C)C(=O)N[C@@H](CC(C)C)C(=O)N[C@@H](CCC(N)=O)C(=O)N[C@@H](CC(=O)O)C(=O)N[C@H](C(=O)N[C@@H](CCSC)C(=O)N[C@@H](CO)C(=O)N[C@@H](CCCNC(=N)N)C(N)=O)[C@@H](C)CC)C(C)C)[C@@H](C)O)[C@@H](C)CC; UniProt P01286 32-60, looked up, fragment) [hexenoyl trans3-hGRF(1-29)NH2]”, the “effect on GH area under the curve, 0 to 420 minutes following injection” value with pig serum GH [3] (5 μg/kg) and in the experiment on pig serum GH [3] (20 μg/kg) was “significant increases of the GH AUC” in each case. Also, the “duration of GH response following administration” value in the experiment on pig serum GH [3] (one subcutaneous injection, 5 μg/kg, FIG. 4) turned out to be 240 min. In addition, the “D-IGF-I: increase in IGF-I levels from day 1 (pretreatment) to day 6” value in the experiment with serum IGF-I [2] is given as “significantly increased IGF-I levels”. The “effect on GH area under the curve (0 to 300 minutes following injection)” value in the experiment with pig serum GH [4] (0.25 μg/kg), in the experiment with pig serum GH [4] (1 μg/kg) and in the experiment with pig serum GH [4] (4 μg/kg) was “significant response” throughout. Further, the “GH response in the first 60 minutes” value with pig serum GH [4] (setting [10]) is recorded as “moderate”. For the same substance, the “duration of GH release following injection” value in the experiment with pig serum GH [4] (setting [10]) is reported as “approximately 260 minutes”.
